The record followed here is ChEMBL document CHEMBL3352575, “Synthesis, in vitro and in vivo antitumor activity of pyrazole-fused 23-hydroxybetulinic acid derivatives” (Bioorg Med Chem Lett, 2015).

Format in all cases: functional, cell-based
Test [1] relates to B16. Nature of the test: Antiproliferative activity against mouse B16 cells after 72 hrs by MTT assay. Conditions: B16, 72 h.
Test [2] is described as follows: Antiproliferative activity against human HL60 cells after 72 hrs by MTT assay. Conditions: HL-60, 72 h.
Test [3] can be described thus: Antiproliferative activity against human SF763 cells after 72 hrs by MTT assay. Conditions: SF763, 72 h. Background: Tetrazolium assays rely on reduction of a dye to a coloured formazan, in cell work by metabolically active cells.
The test system of test [4] is HeLa. Put plainly: Antiproliferative activity against human HeLa cells after 72 hrs by MTT assay.
The nature of test [5]: Antiproliferative activity against human Bel7402 cells after 72 hrs by MTT assay. Conditions: Bel-7402, 72 h.

What is called IC50 is the concentration at which inhibition is half-maximal. High values mean lower potency, low ones higher potency. In the case of `C=C(C)[C@@H]1CC[C@]2(C(=O)O[C@@H]3O[C@H](CO)[C@@H](O)[C@H](O)[C@H]3O)CC[C@]3(C)[C@H](CC[C@@H]4[C@@]5(C)Cc6c[nH]nc6[C@@](C)(COC(C)=O)[C@@H]5CC[C@]43C)[C@@H]12`, the 50% inhibitory concentration (IC50) in test [1] is 18.9 µM; in test [2] it was 28.5 µM; in test [3], 20.1 µM; in test [4], 20 µM; in test [5], 14.1 µM.
On the same counts, the results for `C=C(C)[C@@H]1CC[C@]2(C(=O)N3CCOCC3)CC[C@]3(C)[C@H](CC[C@@H]4[C@@]5(C)Cc6c[nH]nc6[C@@](C)(COC(C)=O)[C@@H]5CC[C@]43C)[C@@H]12` are 7.89 µM, 9.85 µM, 8.45 µM, 10 µM and 10.2 µM.
For `C=C(C)[C@@H]1CC[C@]2(C(=O)NCC(=O)OC)CC[C@]3(C)[C@H](CC[C@@H]4[C@@]5(C)Cc6c[nH]nc6[C@@](C)(COC(C)=O)[C@@H]5CC[C@]43C)[C@@H]12`, the IC50 came to 18.9 µM in test [1]; 20.9 µM in test [2]; 17.7 µM in test [3]; 21.2 µM in test [4]; 19.3 µM in test [5].
On the same counts, the results for `C=C(C)[C@@H]1CC[C@]2(C(=O)OCCO)CC[C@]3(C)[C@H](CC[C@@H]4[C@@]5(C)Cc6cn(C(C)=O)nc6[C@@](C)(COC(C)=O)[C@@H]5CC[C@]43C)[C@@H]12` are 33.8 µM, 43.2 µM, 32.1 µM, 40.1 µM and 34.4 µM.
As for `C=C(C)[C@@H]1CC[C@]2(C(=O)Oc3ccc(C#N)cc3)CC[C@]3(C)[C@H](CC[C@@H]4[C@@]5(C)Cc6cn(C(C)=O)nc6[C@@](C)(COC(C)=O)[C@@H]5CC[C@]43C)[C@@H]12`, the concentration for half-maximal inhibition (IC50) turned out to be 22.5 µM in test [1]; 31.3 µM in test [2]; 23.4 µM in test [3]; 28 µM in test [4]; 18.1 µM in test [5].
On to `C=C(C)[C@@H]1CC[C@]2(C(=O)N3CCOCC3)CC[C@]3(C)[C@H](CC[C@@H]4[C@@]5(C)Cc6c[nH]nc6[C@@](C)(CO)[C@@H]5CC[C@]43C)[C@@H]12`, for which the 50% inhibitory concentration (IC50) was determined as 31.1 µM in test [1]; 39 µM in test [2]; 33.7 µM in test [3]; 35.5 µM in test [4]; 39.4 µM in test [5].
The like results for `C=C(C)[C@@H]1CC[C@]2(C(=O)NCC(=O)O)CC[C@]3(C)[C@H](CC[C@@H]4[C@@]5(C)Cc6c[nH]nc6[C@@](C)(CO)[C@@H]5CC[C@]43C)[C@@H]12` were, in that order, 30.8 µM, 34.9 µM, 27.4 µM, 32.7 µM and 36.1 µM.
The like results for `C=C(C)[C@@H]1CC[C@]2(C(=O)OCc3ccccc3)CC[C@]3(C)[C@H](CC[C@@H]4[C@@]5(C)Cc6cn(CC)nc6[C@@](C)(CO)[C@@H]5CC[C@]43C)[C@@H]12` were, in that order, 38.2 µM, 40.1 µM, 39.6 µM, 40 µM and 45.8 µM.
The like results for `C=CCn1cc2c(n1)[C@@](C)(CO)[C@@H]1CC[C@]3(C)[C@H](CC[C@@H]4[C@H]5[C@H](C(=C)C)CC[C@]5(C(=O)OCc5ccccc5)CC[C@]43C)[C@@]1(C)C2` were, in that order, 20.1 µM, 31.1 µM, 21.1 µM, 26.4 µM and 29.6 µM.
Consider `C=C(C)[C@@H]1CC[C@]2(C(=O)OCc3ccccc3)CC[C@]3(C)[C@H](CC[C@@H]4[C@@]5(C)Cc6cn(CC(=O)OCC)nc6[C@@](C)(CO)[C@@H]5CC[C@]43C)[C@@H]12`, for which the concentration for half-maximal inhibition (IC50) came to 32.9 µM in test [1]; 39.1 µM in test [2]; 33 µM in test [3]; 37 µM in test [4]; 43 µM in test [5].
Regarding `C=C(C)[C@@H]1CC[C@]2(C(=O)O)CC[C@]3(C)[C@H](CC[C@@H]4[C@@]5(C)Cc6cn(CC)nc6[C@@](C)(CO)[C@@H]5CC[C@]43C)[C@@H]12`, the IC50 came to 42.4 µM in test [1]; 47 µM in test [2]; 44.1 µM in test [3]; 58.8 µM in test [4]; 50.3 µM in test [5].
As for `C=C(C)[C@@H]1CC[C@]2(C(=O)O)CC[C@]3(C)[C@H](CC[C@@H]4[C@@]5(C)Cc6cn(CCC)nc6[C@@](C)(CO)[C@@H]5CC[C@]43C)[C@@H]12`, the IC50 in test [1] stood at 44.3 µM; in test [2], 45.8 µM; in test [3], 41 µM; in test [4], 54.1 µM; in test [5], 48 µM.
The like results for `C=C(C)[C@@H]1CC[C@]2(C(=O)O)CC[C@]3(C)[C@H](CC[C@@H]4[C@@]5(C)Cc6cn(CC(=O)OCC)nc6[C@@](C)(CO)[C@@H]5CC[C@]43C)[C@@H]12` were, in that order, 29.4 µM, 49.8 µM, 35.9 µM, 47.2 µM and 40.6 µM.
The like results for `C=C(C)[C@@H]1CC[C@]2(C(=O)O)CC[C@]3(C)[C@H](CC[C@@H]4[C@@]5(C)Cc6cn(CC(=O)O)nc6[C@@](C)(CO)[C@@H]5CC[C@]43C)[C@@H]12` were, in that order, 39.7 µM, 46.3 µM, 30.2 µM, 59.9 µM and 50.2 µM.
The like results for `C=C(C)[C@@H]1CC[C@]2(C(=O)OCC)CC[C@]3(C)[C@H](CC[C@@H]4[C@@]5(C)Cc6cn(CC)nc6[C@@](C)(COC(C)=O)[C@@H]5CC[C@]43C)[C@@H]12` were, in that order, 19.4 µM, 28.1 µM, 19.4 µM, 24.2 µM and 30.2 µM.
With `C=CCOC(=O)[C@]12CC[C@@H](C(=C)C)[C@@H]1[C@H]1CC[C@@H]3[C@@]4(C)Cc5cn(CC=C)nc5[C@@](C)(COC(C)=O)[C@@H]4CC[C@@]3(C)[C@]1(C)CC2`, the IC50 came to 20.1 µM in test [1]; 30.8 µM in test [2]; 22 µM in test [3]; 27.3 µM in test [4]; 33.5 µM in test [5].
As to `C=C(C)[C@@H]1CC[C@]2(C(=O)OCC(=O)OCC)CC[C@]3(C)[C@H](CC[C@@H]4[C@@]5(C)Cc6cn(CC(=O)OCC)nc6[C@@](C)(COC(C)=O)[C@@H]5CC[C@]43C)[C@@H]12`, the half-inhibitory concentration (IC50) in test [1] worked out at 29.3 µM; in test [2] it was 35.1 µM; in test [3], 34 µM; in test [4] it was 38.2 µM; in test [5], 39.2 µM.
For the molecule `C=CCOC(=O)[C@]12CC[C@@H](C(=C)C)[C@@H]1[C@H]1CC[C@@H]3[C@@]4(C)Cc5cn(CC=C)nc5[C@@](C)(CO)[C@@H]4CC[C@@]3(C)[C@]1(C)CC2`, the half-inhibitory concentration (IC50) in test [1] is 24.9 µM; in test [2], 33.4 µM; in test [3], 25.3 µM; in test [4], 32.1 µM; in test [5], 38.8 µM.
